The values that follow are results of earlier work, collected in patent US20100151018A1, “SUSTAINED-RELEASE LEVETIRACETAM COMPOSITION AND PREPARATION PROCESS” (RD- Pharmagal, priority 2007, published 2010).

Test in data set [1]: not given
This is another data set of the same source.

≈ marks a conversion by molar mass, not a printed value.

As for `CC[C@@H](C(N)=O)N1CCCC1=O` [levetiracetam, S-enantiomer of a-ethyl-2-oxo-1-pyrrolidine acetamide], under “in adults”, the plasma half-life was 7 h. Further, the bioavailability entry (oral administration of immediate-release tablets) is reported as “approximately 100%”. The solubility in water entry in data set [1] was “approximately 104.0 g/100 ml”.
On to `NC(=O)N1c2ccccc2CC(=O)c2ccccc21` [oxcarbazepine], for which the solubility in water in data set [1] is 308 mg/L (≈ 1220 µM).
